Measured values published in patent US20210009564A1, “CALPAIN MODULATORS AND THERAPEUTIC USES THEREOF” (BLADE THERAPERTICS, INC., priority 2018, published 2021).

Key:
Human Calpain 9/NS1 = target: T1, Human Calpain 9/NS1 (Homo sapiens, UniProt O14815); assay: Calpain inhibition, continuous fluorescence (FRET substrate) assay, calpain 9; type: biochemical; conditions: SensoLyte 520 FRET substrate, 25C
T1 sequence (O14815 1-690): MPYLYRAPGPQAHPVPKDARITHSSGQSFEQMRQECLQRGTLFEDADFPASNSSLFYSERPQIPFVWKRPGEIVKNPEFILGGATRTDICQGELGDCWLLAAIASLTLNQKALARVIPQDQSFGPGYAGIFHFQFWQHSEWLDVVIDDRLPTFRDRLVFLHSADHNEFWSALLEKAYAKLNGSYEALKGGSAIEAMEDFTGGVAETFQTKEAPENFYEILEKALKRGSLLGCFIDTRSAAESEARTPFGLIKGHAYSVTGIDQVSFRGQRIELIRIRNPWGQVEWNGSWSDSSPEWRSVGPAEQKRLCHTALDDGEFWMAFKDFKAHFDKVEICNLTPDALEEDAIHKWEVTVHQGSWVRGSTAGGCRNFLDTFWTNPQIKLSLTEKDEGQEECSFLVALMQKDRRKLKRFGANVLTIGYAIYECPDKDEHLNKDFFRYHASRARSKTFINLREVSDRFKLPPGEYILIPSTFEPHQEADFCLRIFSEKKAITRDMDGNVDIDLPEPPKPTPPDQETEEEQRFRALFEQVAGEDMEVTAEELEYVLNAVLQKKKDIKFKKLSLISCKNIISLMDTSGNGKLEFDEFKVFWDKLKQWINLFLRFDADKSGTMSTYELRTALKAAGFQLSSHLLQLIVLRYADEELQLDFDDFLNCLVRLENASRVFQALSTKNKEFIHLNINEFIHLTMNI
T1 sequence (P04632 1-268 partner): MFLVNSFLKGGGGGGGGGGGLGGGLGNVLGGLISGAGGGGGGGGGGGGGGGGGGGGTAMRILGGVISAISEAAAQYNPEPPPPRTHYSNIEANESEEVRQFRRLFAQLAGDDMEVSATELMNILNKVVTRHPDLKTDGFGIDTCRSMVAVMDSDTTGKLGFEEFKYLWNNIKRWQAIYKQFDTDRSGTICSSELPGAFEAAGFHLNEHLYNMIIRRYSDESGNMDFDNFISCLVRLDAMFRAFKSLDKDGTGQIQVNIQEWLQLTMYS
Method in brief: (§1)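 Continuous FRET read-out (ex 490/em 520 nm) of 5-FAM/QXL 520 substrate cleavage, started by adding substrate with CaCl2 for in-situ activation after enzyme–inhibitor preincubation at 25 °C. Buffer was Tris 50 mM pH 7.5, NaCl 100 mM, DTT 1 mM. IC50 fitted (4-parameter) from rates over 1-5 min.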

[1] = tested on: Calpain activity in SH-SY5Y cells; assay: SH-SY5Y spectrin breakdown product (SBDP-150) western blot assay; type: cell-based; conditions: Homo sapiens, read-out: SH-SY5Y Spectrin IC50
Human Calpain 2/NS1 = target: T2, Human Calpain 2/NS1 (Homo sapiens, UniProt P17655); assay: Calpain inhibition, continuous fluorescence (FRET substrate) assay, calpain 2; type: biochemical; conditions: SensoLyte 520 FRET substrate, 25C
T2 sequence (P17655 1-700): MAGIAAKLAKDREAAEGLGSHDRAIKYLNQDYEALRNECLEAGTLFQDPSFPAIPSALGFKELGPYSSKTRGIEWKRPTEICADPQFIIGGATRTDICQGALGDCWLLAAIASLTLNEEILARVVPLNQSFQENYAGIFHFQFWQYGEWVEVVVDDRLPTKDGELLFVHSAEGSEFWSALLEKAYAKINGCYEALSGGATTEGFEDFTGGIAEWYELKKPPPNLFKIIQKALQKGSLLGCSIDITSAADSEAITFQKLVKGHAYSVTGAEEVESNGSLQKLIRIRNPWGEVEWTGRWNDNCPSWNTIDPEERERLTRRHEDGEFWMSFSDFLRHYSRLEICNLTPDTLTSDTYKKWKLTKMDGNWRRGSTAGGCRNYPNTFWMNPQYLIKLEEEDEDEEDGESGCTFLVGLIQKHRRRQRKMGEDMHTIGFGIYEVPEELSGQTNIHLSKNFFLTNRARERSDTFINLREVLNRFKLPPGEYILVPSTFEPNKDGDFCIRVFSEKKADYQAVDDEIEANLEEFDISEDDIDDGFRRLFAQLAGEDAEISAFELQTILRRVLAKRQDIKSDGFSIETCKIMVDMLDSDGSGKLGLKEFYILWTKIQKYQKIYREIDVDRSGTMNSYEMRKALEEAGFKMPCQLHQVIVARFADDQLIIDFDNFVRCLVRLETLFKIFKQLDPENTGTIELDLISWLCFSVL
T2 sequence (P04632 1-268 partner): T1 sequence (P04632 1-268 partner)
Method in brief: as §1

[2] = tested on: Calpain activity in SH-SY5Y cells; assay: SH-SY5Y Suc-LLVY-AMC fluorescence assay; type: cell-based; conditions: Homo sapiens, read-out: SH-SY5Y + AMC IC50
Human Calpain 1/NS1 = target: T3, Human Calpain 1/NS1 (Homo sapiens, UniProt P07384); assay: Calpain inhibition, continuous fluorescence (FRET substrate) assay, calpain 1; type: biochemical; conditions: SensoLyte 520 FRET substrate, 25C
T3 sequence (P07384 1-714): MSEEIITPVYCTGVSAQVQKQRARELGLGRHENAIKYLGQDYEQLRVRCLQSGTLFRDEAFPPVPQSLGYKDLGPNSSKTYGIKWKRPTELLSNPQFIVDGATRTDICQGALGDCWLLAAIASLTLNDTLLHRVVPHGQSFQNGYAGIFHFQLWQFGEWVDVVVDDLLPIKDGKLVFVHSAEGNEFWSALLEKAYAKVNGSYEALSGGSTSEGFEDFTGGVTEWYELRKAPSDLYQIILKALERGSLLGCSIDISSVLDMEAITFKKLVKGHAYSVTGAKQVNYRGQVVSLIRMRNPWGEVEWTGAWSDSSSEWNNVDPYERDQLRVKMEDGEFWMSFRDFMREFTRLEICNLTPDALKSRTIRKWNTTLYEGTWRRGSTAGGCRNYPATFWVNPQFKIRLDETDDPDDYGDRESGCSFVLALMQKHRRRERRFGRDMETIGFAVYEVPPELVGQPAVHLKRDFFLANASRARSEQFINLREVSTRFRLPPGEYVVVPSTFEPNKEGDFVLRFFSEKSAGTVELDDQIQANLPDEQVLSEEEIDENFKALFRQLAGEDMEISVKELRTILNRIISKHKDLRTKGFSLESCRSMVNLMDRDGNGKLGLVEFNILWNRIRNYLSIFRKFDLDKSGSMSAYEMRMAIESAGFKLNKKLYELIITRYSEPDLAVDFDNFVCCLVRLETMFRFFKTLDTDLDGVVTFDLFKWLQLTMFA
T3 sequence (P04632 1-268 partner): T1 sequence (P04632 1-268 partner)
Method in brief: as §1

[3] = SH-SY5Y cells, 25 uM A23187, SBDP-150 western blot
[4] = SH-SY5Y cells, 100 uM Suc-LLVY-AMC

IC50 (Human Calpain 9/NS1) [µM] | IC50 (Human Calpain 2/NS1) [µM] | IC50 (Human Calpain 1/NS1) [µM] | IC50 [1, 3] [µM] | IC50 [2, 4] [µM] | SMILES | IC50 ([1]; SH-SY5Y) [µM] | IC50 ([2]; SH-SY5Y) [µM]
> 10 | > 10 | > 10 | > 25 | > 25 | O=C(NC(Cc1ccccc1)C(=O)Nc1ncco1)c1nsnc1-c1ccccc1 (stereo not drawn) [Compound 57, N-(1-(OXAZOL-2-YLAMINO)-1-OXO-3-PHENYLPROPAN-2-YL)-4-PHENYL-1,2,5-THIADIAZOLE-3-CARBOXAMIDE] | – | –
> 10 | > 10 | > 10 | > 25 | > 25 | O=C(NC(Cc1ccccc1)C(=O)c1nc2ccccc2o1)c1nsnc1-c1ccccc1 (stereo not drawn) [Compound 86, N-(1-(BENZO[d]OXAZOL-2-YL)-1-OXO-3-PHENYLPROPAN-2-YL)-4-PHENYL-1,2,5-THIADIAZOLE-3-CARBOXAMIDE] | – | –
< 3 | < 3 | < 3 | 10 to 25 | < 10 | NC(=O)C(=O)C(Cc1ccccc1)NC(=O)c1nsnc1-c1ccc(F)cc1 (stereo not drawn) [Compound 3, N-(4-AMINO-3,4-DIOXO-1-PHENYLBUTAN-2-YL)-4-(4-FLUOROPHENYL)-1,2,5-THIADIAZOLE-3-CARBOXAMIDE] | – | –
< 3 | < 3 | < 3 | < 10 | < 10 | NC(=O)C(=O)C(Cc1ccccc1)NC(=O)c1cn(C(F)F)nc1-c1cccc2ccncc12 (stereo not drawn) [Compound 22, N-(4-AMINO-3,4-DIOXO-1-PHENYLBUTAN-2-YL)-1-(DIFLUOROMETHYL)-3-(ISOQUINOLIN-8-YL)-1H-PYRAZOLE-4-CARBOXAMIDE] | – | –
< 3 | < 3 | < 3 | 10 to 25 | < 10 | Cc1nc(-c2ccoc2Cl)c(C(=O)NC(Cc2ccccc2)C(=O)C(N)=O)o1 (stereo not drawn) [Compound 90, N-(4-AMINO-3,4-DIOXO-1-PHENYLBUTAN-2-YL)-4-(2-CHLOROFURAN-3-YL)-2-METHYLOXAZOLE-5-CARBOXAMIDE] | – | –
< 3 | < 3 | < 3 | 10 to 25 | < 10 | Cn1cc(C(=O)NC(Cc2ccccc2)C(=O)C(N)=O)c(-c2cccc3ocnc23)n1 (stereo not drawn) [Compound 68, N-(4-AMINO-3,4-DIOXO-1-PHENYLBUTAN-2-YL)-3-(BENZO[D]OXAZOL-4-YL)-1-METHYL-1H-PYRAZOLE-4-CARBOXAMIDE] | – | –
< 3 | < 3 | < 3 | > 25 | < 10 | Cn1cc(C(=O)NC(Cc2ccccc2)C(=O)C(N)=O)c(-c2ccoc2Cl)n1 (stereo not drawn) [Compound 19, N-(4-AMINO-3,4-DIOXO-1-PHENYLBUTAN-2-YL)-3-(2-CHLOROFURAN-3-YL)-1-METHYL-1H-PYRAZOLE-4-CARBOXAMIDE] | – | –
< 3 | < 3 | < 3 | < 10 | < 10 | NC(=O)C(=O)C(Cc1ccccc1)NC(=O)c1nsnc1-c1ccoc1Cl (stereo not drawn) [Compound 79, N-(4-AMINO-3,4-DIOXO-1-PHENYLBUTAN-2-YL)-4-(2-CHLOROFURAN-3-YL)-1,2,5-THIADIAZOLE-3-CARBOXAMIDE] | – | –
< 3 | < 3 | < 3 | 10 to 25 | < 10 | Cc1nc(-c2coc(Cl)c2)c(C(=O)NC(Cc2ccccc2)C(=O)C(N)=O)o1 (stereo not drawn) [Compound 92, N-(4-AMINO-3,4-DIOXO-1-PHENYLBUTAN-2-YL)-4-(5-CHLOROFURAN-3-YL)-2-METHYLOXAZOLE-5-CARBOXAMIDE] | – | –
< 3 | < 3 | < 3 | 10 to 25 | 10 to 25 | NC(=O)C(=O)C(Cc1ccccc1)NC(=O)c1cn(C(F)F)nc1-c1cccc2oc(=O)[nH]c12 (stereo not drawn) [Compound 50, N-(4-AMINO-3,4-DIOXO-1-PHENYLBUTAN-2-YL)-1-(DIFLUOROMETHYL)-3-(2-OXO-2,3-DIHYDROBENZO[D]OXAZOL-4-YL)-1H-PYRAZOLE-4-CARBOXAMIDE] | – | –
< 3 | < 3 | < 3 | < 10 | < 10 | Cc1nc(-c2ccccc2F)c(C(=O)NC(Cc2cccc(Cl)c2)C(=O)C(N)=O)o1 (stereo not drawn) [Compound 89, N-(4-AMINO-1-(3-CHLOROPHENYL)-3,4-DIOXOBUTAN-2-YL)-4-(2-FLUOROPHENYL)-2-METHYLOXAZOLE-5-CARBOXAMIDE] | – | –
< 3 | < 3 | < 3 | > 25 | 10 to 25 | Cn1cc(C(=O)NC(Cc2ccccc2)C(=O)C(N)=O)c(-c2ncnc3ccccc23)n1 (stereo not drawn) [Compound 49, N-(4-AMINO-3,4-DIOXO-1-PHENYLBUTAN-2-YL)-1-METHYL-3-(QUINAZOLIN-4-YL)-1H-PYRAZOLE-4-CARBOXAMIDE] | – | –
< 3 | < 3 | < 3 | 10 to 25 | < 10 | NC(=O)C(=O)C(Cc1ccccc1)NC(=O)c1cnoc1-c1cccc2c1OCO2 (stereo not drawn) [Compound 5, N-(4-AMINO-3,4-DIOXO-1-PHENYLBUTAN-2-YL)-5-(BENZO[d][1,3]DIOXOL-4-YL)ISOXAZOLE-4-CARBOXAMIDE] | – | –

SMILES | IC50 (Human Calpain 9/NS1) [µM] | IC50 (Human Calpain 2/NS1) [µM] | IC50 (Human Calpain 1/NS1) [µM] | IC50 [1, 3] [µM] | IC50 [2, 4] [µM] | IC50 ([1]; SH-SY5Y) [µM] | IC50 ([2]; SH-SY5Y) [µM]
Cc1cc(C(=O)NC(Cc2ccccc2)C(=O)C(N)=O)n(-c2nccc(-c3ccccc3)n2)n1 (stereo not drawn) [Compound 45, N-(4-AMINO-3,4-DIOXO-1-PHENYLBUTAN-2-YL)-3-METHYL-1-(4-PHENYLPYRIMIDIN-2-YL)-1H-PYRAZOLE-5-CARBOXAMIDE] | < 3 | < 3 | < 3 | – | – | 10 to 25 | < 10
Cc1cc(C(=O)NC(Cc2ccccc2)C(=O)C(N)=O)nn1-c1nccc(-c2ccccc2)n1 (stereo not drawn) [Compound 59, N-(4-AMINO-3,4-DIOXO-1-PHENYLBUTAN-2-YL)-5-METHYL-1-(4-PHENYLPYRIMIDIN-2-YL)-1H-PYRAZOLE-3-CARBOXAMIDE] | > 10 | 3 to 10 | > 10 | – | – | > 25 | < 10
